This passage reports kcat/Km, Km and kcat results from ChEMBL document CHEMBL1629679, “Extended-spectrum cephalosporinases in Pseudomonas aeruginosa” (2009).

The test system of assay [1] is Pseudomonas aeruginosa. Nature of the assay: Ratio of Kcat to Km for Pseudomonas aeruginosa PDC-2 by spectrophotometer.
Assay [2] has as its system Pseudomonas aeruginosa. The assay is described as follows: Activity at Pseudomonas aeruginosa PDC-2 by spectrophotometer.
For assay [3], the system named is Pseudomonas aeruginosa. Nature of the assay: Ratio of Kcat to Km for Pseudomonas aeruginosa PDC-3 by spectrophotometer.
Assay [4] has as its system Pseudomonas aeruginosa. The assay is described as follows: Activity at Pseudomonas aeruginosa PDC-3 by spectrophotometer.

For the compound `CC1(C)S[C@@H]2[C@H](NC(=O)Cc3ccccc3)C(=O)N2[C@H]1C(=O)O`, the specificity constant (kcat/Km) with Pseudomonas aeruginosa [1] and in the assay with Pseudomonas aeruginosa [3] was 1.2e+06 M⁻¹ s⁻¹ throughout. The Km with Pseudomonas aeruginosa [2] and in the assay with Pseudomonas aeruginosa [4] was 30 µM in each case. For the same compound, the catalytic constant (kcat) in the assay with Pseudomonas aeruginosa [2] and in the assay on Pseudomonas aeruginosa [4] was 35 s⁻¹ throughout.

On to `C[C@@H](O)[C@H]1C(=O)N2C(C(=O)O)=C(SCCNC=N)C[C@H]12`, for which the kcat/Km with Pseudomonas aeruginosa [1] and with Pseudomonas aeruginosa [3] was 5000 M⁻¹ s⁻¹ each time. The results for the Michaelis constant (Km) in the assay with Pseudomonas aeruginosa [2] and in the assay with Pseudomonas aeruginosa [4] were 35 µM and 20 µM, respectively. The results for the kcat in the assay on Pseudomonas aeruginosa [2] and with Pseudomonas aeruginosa [4] were 0.2 s⁻¹ and 0.1 s⁻¹, respectively.

As for `CO/N=C(\C(=O)N[C@@H]1C(=O)N2C(C(=O)O)=C(COC(C)=O)CS[C@H]12)c1csc(N)n1`, the specificity constant (kcat/Km) (in general, the turnover number divided by the Michaelis constant) came to 30000 M⁻¹ s⁻¹ with Pseudomonas aeruginosa [1] and 20000 M⁻¹ s⁻¹ in the assay on Pseudomonas aeruginosa [3]. Also, the Michaelis constant (Km) (in general, the substrate concentration at which the rate is half of its maximum) stood at 5 µM in the assay with Pseudomonas aeruginosa [2] and 8 µM with Pseudomonas aeruginosa [4]. Besides, the kcat (in general, the number of substrate molecules converted per active site and unit of time at saturation) with Pseudomonas aeruginosa [2] worked out at 5 s⁻¹; with Pseudomonas aeruginosa [4], 0.15 s⁻¹.

`CCN1CCN(C(=O)N[C@@H](C(=O)N[C@@H]2C(=O)N3[C@@H]2SC(C)(C)[C@@H]3C(=O)O)c2ccccc2)C(=O)C1=O`: the kcat/Km in the assay on Pseudomonas aeruginosa [1] is 135000 M⁻¹ s⁻¹; in the assay on Pseudomonas aeruginosa [3], 125000 M⁻¹ s⁻¹. In addition, the Km in the assay with Pseudomonas aeruginosa [2] and in the assay on Pseudomonas aeruginosa [4] was 40 µM each time. The kcat with Pseudomonas aeruginosa [2] came out at 5.5 s⁻¹; in the assay on Pseudomonas aeruginosa [4] it was 5 s⁻¹.

With `CC(C)(O/N=C(\C(=O)N[C@@H]1C(=O)N2C(C(=O)[O-])=C(C[n+]3ccccc3)CS[C@H]12)c1csc(N)n1)C(=O)O`, the catalytic efficiency (kcat/Km) in the assay with Pseudomonas aeruginosa [1] worked out at 500 M⁻¹ s⁻¹; with Pseudomonas aeruginosa [3], 600 M⁻¹ s⁻¹. Moreover, the Km in the assay on Pseudomonas aeruginosa [2] stood at 20 µM; in the assay on Pseudomonas aeruginosa [4], 35 µM. Besides, the turnover number (kcat) stood at 0.01 s⁻¹ in the assay on Pseudomonas aeruginosa [2] and 0.02 s⁻¹ in the assay with Pseudomonas aeruginosa [4].

On to `CO/N=C(\C(=O)N[C@@H]1C(=O)N2C(C(=O)[O-])=C(C[N+]3(C)CCCC3)CS[C@H]12)c1csc(N)n1`, for which the specificity constant (kcat/Km) with Pseudomonas aeruginosa [1] is 2000 M⁻¹ s⁻¹; in the assay on Pseudomonas aeruginosa [3], 1500 M⁻¹ s⁻¹. Besides, the Km is 850 µM in the assay with Pseudomonas aeruginosa [2] and 1300 µM in the assay on Pseudomonas aeruginosa [4]. Besides, the catalytic constant (kcat) in the assay on Pseudomonas aeruginosa [2] and in the assay on Pseudomonas aeruginosa [4] was 2 s⁻¹ throughout.
